Converted amounts (≈) assume the structure as drawn. Where two headings read alike, the source gives them in different places.
Test: Solubility of the crystalline forms in methylcyclohexane (Mullin method)
Type: physicochemical
Conditions: for Solubility Concentration / solubility: at equilibrium; for Thermodynamic stability compared with form I: inferred from the lower solubility in methylcyclohexane, 10 °C to 70 °C; for solubility: methylcyclohexane, organic solvent or mixture, thermodynamic from solid, read-out: Solubility Concentration
Experimental: The solubility of the 2 crystalline forms of rimonabant in the same solvent was also measured. The method used is described in Measurement of Solubility in J. W. Mullin. Crystallization: 3rd edition, Ipswich (GB): Butterworth-Heinemann, 1993, p. 105.
The measurements were carried out for each of the crystalline forms, in solution in methylcyclohexane at temperatures varying from 10° C. to 70° C. At equilibrium, for each temperature, the undissolved crystalline form is characterized by infrared spectrography, in particular by its main bands.

Solubility Concentration (in methylcyclohexane, 10.00 °C) [mg/mL]	Solubility Concentration (in methylcyclohexane, 20.00 °C) [mg/mL]	Solubility Concentration (in methylcyclohexane, 30.00 °C) [mg/mL]	Solubility Concentration (in methylcyclohexane, 40.00 °C) [mg/mL]	Solubility Concentration (in methylcyclohexane, 50.00 °C) [mg/mL]	Solubility Concentration (in methylcyclohexane, 60.00 °C) [mg/mL]	Solubility Concentration (in methylcyclohexane, 70.00 °C) [mg/mL]	Solubility compared with form I (in methylcyclohexane, all temperatures between 10 °C and 70 °C)	Thermodynamic stability compared with form I (listed as crystalline form II of rimonabant)	solubility (10 °C, in methylcyclohexane, 10.00 °C) [mg/mL]	solubility (20 °C, in methylcyclohexane, 20.00 °C) [mg/mL]	solubility (30 °C, in methylcyclohexane, 30.00 °C) [mg/mL]	solubility (40 °C, in methylcyclohexane, 40.00 °C) [mg/mL]	solubility (50 °C, in methylcyclohexane, 50.00 °C) [mg/mL]	solubility (60 °C, in methylcyclohexane, 60.00 °C) [mg/mL]	solubility (70 °C, in methylcyclohexane, 70.00 °C) [mg/mL]	SMILES	Thermodynamic stability compared with form I (listed as rimonabant form II)
4.50 (≈ 9.7 mM)	6.60 (≈ 14.2 mM)	9.20 (≈ 19.8 mM)	12.60 (≈ 27.2 mM)	19.00 (≈ 41 mM)	29.20 (≈ 63 mM)	42.00 (≈ 90.6 mM)	less soluble	stability greater than that of form I	–	–	–	–	–	–	–	Cc1c(C(=O)NN2CCCCC2)nn(-c2ccc(Cl)cc2Cl)c1-c1ccc(Cl)cc1 [Form II, N-piperidino-5-(4-chlorophenyl)-1-(2,4-dichlorophenyl)-4-methyl-3-pyrazolecarboxamide]	thermodynamically more stable than rimonabant form I
–	–	–	–	–	–	–	–	–	4.86 (≈ 10.5 mM)	6.92 (≈ 14.9 mM)	9.3 (≈ 20.1 mM)	13.7 (≈ 29.5 mM)	20.4 (≈ 44 mM)	31.2 (≈ 67.3 mM)	52.4 (≈ 113 mM)	Cc1c(C(=O)NN2CCCCC2)nn(-c2ccc(Cl)cc2Cl)c1-c1ccc(Cl)cc1 [Form I, N-Piperidino-5-(4-chlorophenyl)-1-(2,4-dichlorophenyl)-4-methyl-3-pyrazolecarboxamide, reference compound]	–

— US20100190827A1, “POLYMORPHIC FORM OF RIMONABANT, METHOD FOR PREPARING IT AND PHARMACEUTICAL COMPOSITIONS CONTAINING IT” (SANOFI-AVENTIS, priority 2001, published 2010)
